We go through four molecules from ChEMBL document CHEMBL1153872, “Synthesis, analgesic, anti-inflammatory and antimicrobial studies of 2,4-dichloro-5-fluorophenyl containing thiazolotriazoles” (2009).

Common to all, as to assay type: functional
The test system of experiment [1] is Rattus norvegicus. Kind of experiment: Antiinflammatory activity in Wister albino rat assessed as inhibition carrageenan-induced paw edema at 2 mg/kg, po administered 30 mins before carrageenan challenge measured after 3 hrs relative to control. On the technique in general: In the carrageenan paw model, swelling and tenderness develop within hours.
The test system of experiment [2] is Trichophyton mentagrophytes. Kind of experiment: Antifungal activity against Trichophyton mentagrophytes after 48 hrs by twofold broth dilution method.
For experiment [3], the system named is Trichophyton mentagrophytes. The experiment is described as follows: Antifungal activity against Trichophyton mentagrophytes after 3 to 4 days by agar diffusion method. For orientation: In agar diffusion tests the substance spreads into inoculated agar from a disc or well.
In experiment [4] the test system is Talaromyces marneffei. Kind of experiment: Antifungal activity against Penicillium marneffei after 48 hrs by twofold broth dilution method. On the technique in general: Dilution methods test growth across graded concentrations, often in twofold steps.
Experiment [5] concerns Aspergillus niger. The experiment is described as follows: Antifungal activity against Aspergillus niger after 48 hrs by twofold broth dilution method.
Experiment [6] has as its system Streptococcus pyogenes. Kind of experiment: Antibacterial activity against Streptococcus pyogenes after 24 hrs by disk diffusion method.
Experiment [7] relates to Aspergillus fumigatus. The experiment is described as follows: Antifungal activity against Aspergillus fumigatus after 48 hrs by twofold broth dilution method.
For experiment [8], the system named is Klebsiella pneumoniae. Kind of experiment: Antibacterial activity against Klebsiella pneumoniae after 24 hrs by disk diffusion method.
The test system of experiment [9] is Pseudomonas aeruginosa. The experiment is described as follows: Antibacterial activity against Pseudomonas aeruginosa after 24 hrs by disk diffusion method.
The test system of experiment [10] is Talaromyces marneffei. The experiment is described as follows: Antifungal activity against Penicillium marneffei after 3 to 4 days by agar diffusion method.
For experiment [11], the system named is Streptococcus pyogenes. Kind of experiment: Antibacterial activity against Streptococcus pyogenes after 24 hrs by broth dilution technique.
For experiment [12], the system named is Candida albicans. The experiment is described as follows: Antifungal activity against Candida albicans after 3 to 4 days by agar diffusion method.
The subject of experiment [13] is Rattus norvegicus. Kind of experiment: Antiinflammatory activity in Wister albino rat assessed as inhibition of carrageenan-induced paw edema at 50 mg/kg, po administered 30 mins before carrageenan challenge measured after 3 hrs relative to control.
The test system of experiment [14] is Aspergillus niger. Kind of experiment: Antifungal activity against Aspergillus niger after 3 to 4 days by agar diffusion method.
Experiment [15] concerns Pseudomonas aeruginosa. The experiment is described as follows: Antibacterial activity against Pseudomonas aeruginosa after 24 hrs by broth dilution technique.
Experiment [16] concerns Candida albicans. Kind of experiment: Antifungal activity against Candida albicans after 48 hrs by twofold broth dilution method.
The subject of experiment [17] is Mus musculus. Kind of experiment: Analgesic activity in albino mouse assessed as response latency time to pain stimulus at 25 mg/kg, po after 1 hr by hot plate method. Set-up: unit not given here.
Experiment [18] relates to Staphylococcus aureus. Kind of experiment: Antibacterial activity against Staphylococcus aureus after 24 hrs by disk diffusion method.
The test system of experiment [19] is Escherichia coli. Kind of experiment: Antibacterial activity against Escherichia coli after 24 hrs by broth dilution technique.
For experiment [20], the system named is Mus musculus. The experiment is described as follows: Analgesic activity in albino mouse assessed as response latency time to pain stimulus at 25 mg/kg, po after 3 hrs by hot plate method. Set-up: unit not given here.
Experiment [21] concerns Escherichia coli. The experiment is described as follows: Antibacterial activity against Escherichia coli after 24 hrs by disk diffusion method.
Experiment [22] concerns Staphylococcus aureus. Kind of experiment: Antibacterial activity against Staphylococcus aureus after 24 hrs by broth dilution technique.
In experiment [23] the test system is Klebsiella pneumoniae. The experiment is described as follows: Antibacterial activity against Klebsiella pneumoniae after 24 hrs by broth dilution technique.
Experiment [24] deals with Aspergillus fumigatus. Kind of experiment: Antifungal activity against Aspergillus fumigatus after 3 to 4 days by agar diffusion method.
For experiment [25], the system named is Mus musculus. The experiment is described as follows: Analgesic activity in albino mouse assessed as response latency time to pain stimulus at 5 mg/kg, ip after 3 hrs by hot plate method. The note with it: route intraperitoneal.
In experiment [26] the test system is Mus musculus. Kind of experiment: Analgesic activity in albino mouse assessed as response latency time to pain stimulus at 5 mg/kg, ip after 1 hr by hot plate method. The note with it: route intraperitoneal.

For `COc1ccc2c(c1)c(CC(=O)O)c(C)n2C(=O)c1ccc(Cl)cc1` [INDOMETHACIN], in the experiment on Rattus norvegicus [1], the inhibition in vivo at 2 mg/kg was 62.9%.

As to `Fc1cc(-c2nc3scc(-c4cc(F)c(Cl)cc4Cl)n3n2)c(Cl)cc1Cl`, the MIC in [2] is listed as 6.25 microg/cm3; in the experiment on Talaromyces marneffei [4], 6.25 microg/cm3; in the experiment with Aspergillus niger [5], 12.5 microg/cm3; against Aspergillus fumigatus [7] it was 6.25 microg/cm3; against Streptococcus pyogenes [11], 6.25 microg/cm3; against Pseudomonas aeruginosa [15] it was 6.25 microg/cm3. Further, the MIC in the experiment on Candida albicans [16], against Escherichia coli [19], against Staphylococcus aureus [22] and against Klebsiella pneumoniae [23] was 6.25 microg/cm3 in each case. In addition, the “Diameter of inhibition zone” value in experiment [3] is 18 mm; in the experiment on Streptococcus pyogenes [6], 24 mm; in the experiment with Klebsiella pneumoniae [8] it was 19 mm; in the experiment on Pseudomonas aeruginosa [9], 30 mm; with Talaromyces marneffei [10], 23 mm; in the experiment on Candida albicans [12], 18 mm. Besides, the “Diameter of inhibition zone” value with Aspergillus niger [14] is recorded as 22 mm; in the experiment on Staphylococcus aureus [18], 23 mm; with Escherichia coli [21] it was 28 mm; with Aspergillus fumigatus [24], 20 mm. In addition, the inhibition in vivo at 50 mg/kg with Rattus norvegicus [13] is 59.4%. Moreover, the Time in the experiment on Mus musculus [17] was determined as 14.21; in the experiment with Mus musculus [20] it was 13.6.

As for `Fc1ccc(-c2csc3nc(-c4cc(F)c(Cl)cc4Cl)nn23)cc1`, the MIC (in experiment [2]; against Talaromyces marneffei [4]; in the experiment with Aspergillus niger [5]; with Aspergillus fumigatus [7]; with Streptococcus pyogenes [11]; against Pseudomonas aeruginosa [15]) was 6.25 microg/cm3 in each case. Also, the MIC was determined as 6.25 microg/cm3 in the experiment with Candida albicans [16], 6.25 microg/cm3 with Escherichia coli [19], 12.5 microg/cm3 with Staphylococcus aureus [22] and 6.25 microg/cm3 in the experiment on Klebsiella pneumoniae [23]. In addition, the “Diameter of inhibition zone” value was 17 mm in experiment [3]; 21 mm with Streptococcus pyogenes [6]; 20 mm with Klebsiella pneumoniae [8]; 28 mm with Pseudomonas aeruginosa [9]; 21 mm in the experiment with Talaromyces marneffei [10]; 19 mm in the experiment with Candida albicans [12]. Further, the “Diameter of inhibition zone” value in the experiment with Aspergillus niger [14] was 21 mm; in the experiment on Staphylococcus aureus [18], 18 mm; in the experiment on Escherichia coli [21], 23 mm; in the experiment on Aspergillus fumigatus [24], 29 mm. In the experiment on Rattus norvegicus [13], the inhibition in vivo at 50 mg/kg was determined as 48.8%. Besides, the values for the Time in the experiment on Mus musculus [17] and with Mus musculus [20] were 8.3 and 8.2, respectively.

Regarding `CCOC(=O)C1(c2ccccc2)CCN(C)CC1` [MEPERIDINE], the results for the Time in the experiment on Mus musculus [25] and in the experiment on Mus musculus [26] were 14.3 h and 16.4 h, respectively.

For orientation: inhibition in vivo means the percentage by which the read-out fell short of the control.
